# Source: patent US7737127B2, “2-propynyl adenosine analogs having A2A agonist activity and compositions thereof” (University of Virginia Patent Foundation, priority 2001, dated 2010)
# Read-outs that look alike come from different tables or passages of the source.
# Assays:
# human A1 AR = biological target: T1, human A1 AR (Homo sapiens, UniProt P30542); test: Radioligand competition binding (125I-ABA) to human A1 AR in CHO K1 cell membranes; conditions: for Ki: Ki from competition binding, 125I-ABA, CHO K1 cell membranes; for A1/A2A: selectivity ratio A1 over A2A
# T1 sequence (P30542 1-326): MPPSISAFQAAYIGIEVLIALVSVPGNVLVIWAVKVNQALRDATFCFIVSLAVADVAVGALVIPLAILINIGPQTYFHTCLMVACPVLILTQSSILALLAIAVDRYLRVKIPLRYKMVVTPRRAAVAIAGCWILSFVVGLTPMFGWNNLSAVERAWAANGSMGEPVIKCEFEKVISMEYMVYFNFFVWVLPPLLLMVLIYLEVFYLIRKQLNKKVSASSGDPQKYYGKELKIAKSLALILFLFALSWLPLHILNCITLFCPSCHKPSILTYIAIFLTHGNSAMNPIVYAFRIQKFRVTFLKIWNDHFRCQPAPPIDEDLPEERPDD
# [1] = biological target: recombinant human A2A receptors (Homo sapiens, UniProt P29274); test: Radioligand competition binding to recombinant human A2A receptors in Sf9 cell membranes
# human neutrophils = test: Human neutrophil oxidative activity, luminol-enhanced chemiluminescence; assay type: cell-based
# Method: Chemiluminescence Methods: Lumninol enhanced chemiluminescence, a measure of neutrophil oxidative activity, is dependent upon both superoxide production and mobilization of the granule enzyme myeloperoxidase. The light is emitted from unstable high-energy oxygen species such as hypochlorous acid and singlet oxygen generated by activated neutrophils.
# The plate was incubated 5 min (37 C) and then fMLP (50 l in HA; final concentration […]) was added to all wells.
# Data are presented as peak chemiluminescence as percent of activity in the absence of an adenosine agonist. The EC50 was determined using PRISM software. All compounds were tested with PMNs from three separate donors.
# Lummol-enhanced chemiluminescence, a measure of neutrophil oxidative activity, is dependent upon both superoxide production and mobilization of the lysosomal granule enzyme myeloperoxidase. The light is emitted from unstable high-energy oxygen species generated by activated neutrophils. Purified neutrophils (5-10×10^5/ml) were incubated in Hanks balanced salt solution containing 0.1% human serum albumin (1 ml) with the tested A2A agonist with or without rolipram and with or without tumor necrosis factor-alpha (1 U/ml) for 30 minutes at 37° C. in a shaking water bath. […] Chemiluminescence is reported as relative peak light emitted (=height of the curve) compared to samples with tumor necrosis factor-alpha and without agonist or rolipram.
# A3 AR = biological target: T2, A3 AR (Homo sapiens, UniProt P0DMS8); test: Radioligand competition binding (125I-ABA) to human A3 AR in HEK 293 cell membranes; conditions: for Ki: Ki from competition binding, 125I-ABA, HEK 293 cell membranes; for A3/A2A: selectivity ratio A3 over A2A
# T2 sequence (P0DMS8 1-318): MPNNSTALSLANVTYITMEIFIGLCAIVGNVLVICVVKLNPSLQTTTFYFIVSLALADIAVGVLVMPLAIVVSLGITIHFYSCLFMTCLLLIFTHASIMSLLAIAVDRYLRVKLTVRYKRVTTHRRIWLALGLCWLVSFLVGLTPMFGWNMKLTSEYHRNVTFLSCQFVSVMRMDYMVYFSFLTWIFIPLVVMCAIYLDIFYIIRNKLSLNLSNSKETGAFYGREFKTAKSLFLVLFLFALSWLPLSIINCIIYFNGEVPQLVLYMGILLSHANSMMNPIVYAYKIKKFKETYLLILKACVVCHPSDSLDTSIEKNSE
# Method: Sf9 cells were cultured in Grace's medium supplemented with 10% fetal bovine serum, 2.5 μg/ml amphotericin B and 50 μg/ml gentamycin in an atmosphere of 50% N2/50% O2. […] Infected cells were harvested 3 days post-infection and washed twice in insect PBS (PBS pH 6.3). Cells were then resuspended in lysis buffer (20 mM HEPES pH 7.5, 150 mM NaCl, 3 mM MgCl2, 1 mM β-mercaptoethanol (BME), 5 μg/mL leupeptin, 5 μg/mL pepstatin A, 1 μg/mL aprotinin, and 0.1 mM PMSF) and snap frozen for storage at −80° C. Cells were thawed on ice, brought to 30 mL total volume in lysis buffer, and burst by N2 cavitation (600 psi for 20 minutes). A low-speed centrifugation was performed to remove any unlysed cells (1000×g for 10 minutes), followed by a high-speed centrifugation (17,000×g for 30 minutes). The pellet from the final centrifugation was homogenized in buffer containing 20 mM HEPES pH 8, 100 mM NaCl, 1% glycerol, 2 μg/mL leupeptin, 2 μg/mL pepstatin A, 2 μg/mL Aprotinin, 0.1 mM PMSF, and 10 μM GDP using a small glass homogenizer followed by passage through a 26 gauge needle. Membranes were aliquoted, snap frozen in liquid N2, and stored at −80° C.
# Binding experiments were performed in triplicate with 5 μg (A2A) or 25 μg (A1 and A3) membrane protein in a total volume of 0.1 mL HE buffer (20 mM HEPES and 1 mM EDTA) with 1 U/mL adenosine deaminase and 5 mM MgCl2 with or without 50 μM GTPγS. Membranes were incubated with radioligands at room temperature for three hours (for agonists) or two hours (for antagonists) in Millipore Multiscreene® 96-well GF/C filter plates and assays were terminated by rapid filtration on a cell harvester (Brandel, Gaithersburg, Md.) followed by 4×150 μl washes over 30 seconds with ice cold 10 mM Tris-HCl, pH 7.4, 10 mM MgCl2.
# [2] = A2A ± SEM, Ki from competition binding, Sf9 cell membranes
# [3] = human neutrophil experiment w/Rolipram
# [4] = human neutrophil experiment w/o Rolipram
# [5] = Homo sapiens, Neutrophil, human neutrophil experiment w/o Rolipram, read-out: PMN oxid (-log EC50) (converted)
# [6] = human neutrophil experiment w/o Rolipram, read-out: PMN oxid (-log EC50) (converted)
# Sequence of recombinant human A2A receptors (P29274 whole entry): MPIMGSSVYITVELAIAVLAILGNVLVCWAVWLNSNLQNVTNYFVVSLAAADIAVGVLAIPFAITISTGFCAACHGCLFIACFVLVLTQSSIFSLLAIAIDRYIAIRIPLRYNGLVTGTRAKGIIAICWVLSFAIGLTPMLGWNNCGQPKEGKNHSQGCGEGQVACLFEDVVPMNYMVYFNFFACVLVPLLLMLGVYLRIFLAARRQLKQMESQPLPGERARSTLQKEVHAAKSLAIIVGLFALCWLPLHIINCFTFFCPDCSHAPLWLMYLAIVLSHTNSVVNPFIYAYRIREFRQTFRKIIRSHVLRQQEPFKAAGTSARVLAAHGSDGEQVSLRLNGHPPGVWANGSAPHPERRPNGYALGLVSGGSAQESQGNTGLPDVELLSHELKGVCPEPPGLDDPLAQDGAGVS
smiles,measurement,setting,value
"CCNC(=O)[C@H]1O[C@@H](n2cnc3c(N)nc(C#CCC4CCC(C)(C(=O)OC)CC4)nc32)C(O)C1O (single isomer, unassigned) [JR-3067A, 4-{3-[6-Amino-9-(5-ethylcarbamoyl-3,4-dihydroxytetrahydrofuran-2-yl)-9H-purin-2-yl]-prop-2-ynyl}-1-methyl-cyclohexanecarboxylic acid methyl ester]",Ki,human A1 AR; A1 ± SEM,99 ± 27 nM
same,A1/A2A,human A1 AR,76.2
same,Ki,[1]; [2],1.3 ± 0.8 nM
same,PMN oxid + roli (-log EC50),human neutrophils; [3],8.7
same,PMN oxid (-log EC50),human neutrophils; [4],7.65
same,Ki,A3 AR; A3 ± SEM,39 ± 3 nM
same,A3/A2A,A3 AR,30.0
"CCNC(=O)[C@H]1O[C@@H](n2cnc3c(N)nc(C#CC4(O)CCC(C(C)(C)C)CC4)nc32)C(O)C1O (stereo in doubt) [JR-3203, 5-[6-Amino-2-(4-tert-butyl-1-hydroxycyclohexylethynyl)purin-9-yl]-3,4-dihydroxytetrahydrofuran-2-carboxylic acid ethylamide]",Ki,human A1 AR; A1 ± SEM,14.7 ± 2.2 nM
same,A1/A2A,human A1 AR,9.5
same,Ki,[1]; [2],1.5 ± 0.22 nM
same,EC50,human neutrophils; [5],14.1 nM
same,PMN oxid + roli (-log EC50),human neutrophils; [3],9.11
same,Ki,A3 AR; A3 ± SEM,43.3 ± 18 nM
same,A3/A2A,A3 AR,28.1
"OC[C@H]1O[C@@H](n2cnc3c(NC4CCCC4)nc(Cl)nc32)[C@H](O)[C@@H]1O [CCPA, 2-chloro-N^6-cyclopentyladenosine, reference compound]",PMN oxid + roli (-log EC50),human neutrophils; [3],7.26
same,EC50,human neutrophils; [6],4270 nM
"CCNC(=O)[C@H]1O[C@@H](n2cnc3c(N)nc(C#CC4(O)CCCCC4C)nc32)C(O)C1O (single isomer, unassigned) [JR-3177A, 5-[6-Amino-2-(1-hydroxy-2-methyl-cyclohexylethynyl)-purin-9-yl]-3,4-dihydroxytetrahydrofuran-2-carboxylic acid ethylamide]",Ki,human A1 AR; A1 ± SEM,8.7 ± 0.07 nM
same,A1/A2A,human A1 AR,7.1
same,Ki,[1]; [2],1.2 ± 0.35 nM
same,PMN oxid + roli (-log EC50),human neutrophils; [3],9.03
same,PMN oxid (-log EC50),human neutrophils; [4],7.53
same,Ki,A3 AR; A3 ± SEM,6.7 ± 0.3 nM
same,A3/A2A,A3 AR,5.5
"CCNC(=O)[C@H]1O[C@@H](n2cnc3c(N)nc(C#CCC4CCC(C(=O)OCCN)CC4)nc32)C(O)C1O (stereo in doubt) [JR-3033, 4-{3-[6-Amino-9-(5-ethylcarbamoyl-3,4-dihydroxy-tetrahydrofuran-2-yl)-9H-purin-2-yl]-prop-2-ynyl}-cyclohexanecarboxylic acid 2-amino-ethyl ester]",Ki,human A1 AR; A1 ± SEM,15.1 ± 3.9 nM
same,A1/A2A,human A1 AR,9.7
same,Ki,[1]; [2],1.6 ± 0.02 nM
same,EC50,human neutrophils; [5],49 nM
same,PMN oxid + roli (-log EC50),human neutrophils; [3],8.67
same,Ki,A3 AR; A3 ± SEM,26 ± 14 nM
same,A3/A2A,A3 AR,16.7
CCNC(=O)C1OC(n2cnc3c(N)nc(C#CC4(O)CCCCC4)nc32)C(O)C1O (stereo not drawn) [JR-3089],Ki,human A1 AR; read-out: A1 ± SEM,7.1 ± 1.1 nM
same,A1/A2A,human A1 AR,10.8
same,Ki,"[1]; read-out: A2A ± SEM, Ki from competition binding, Sf9 cell membranes",0.7 ± 0.05 nM
same,PMN oxid + roli (-log EC50),human neutrophils; [3],9.9
same,PMN oxid (-log EC50),human neutrophils; [4],9.14
same,Ki,A3 AR; read-out: A3 ± SEM,4.4 ± 11 nM
same,A3/A2A,A3 AR,6.7
"CCNC(=O)[C@H]1O[C@@H](n2cnc3c(N)nc(C#CCN4CCN(C(=O)OC(C)(C)C)CC4)nc32)C(O)C1O (stereo in doubt) [JR-3281, 4-{3-[6-Amino-9-(5-ethylcarbamoyl-3,4-dihydroxytetrahydrofuran-2-yl)-9H-purin-2-yl]-prop-2-ynyl}-piperazine-1-carboxylic acid tert-butyl ester]",Ki,human A1 AR; A1 ± SEM,9.15 ± 1.35 nM
same,A1/A2A,human A1 AR,3.9
same,Ki,[1]; [2],2.36 ± 0.5 nM
same,EC50,human neutrophils; [5],6.46 nM
same,Ki,A3 AR; A3 ± SEM,38 nM
same,A3/A2A,A3 AR,16.1
"CCNC(=O)[C@H]1O[C@@H](n2cnc3c(N)nc(C#CCC4CCC(C(N)=O)CC4)nc32)C(O)C1O (stereo in doubt) [JR-3055, 5-{6-Amino-2-[3-(4-carbamoyl-cyclohexyl)-prop-1-ynyl]purin-9-yl}-3,4-dihydroxytetrahydrofuran-2-carboxylic acid ethylamide]",Ki,human A1 AR; A1 ± SEM,36 ± 2 nM
same,A1/A2A,human A1 AR,20.0
same,Ki,[1]; [2],1.8 ± 0.2 nM
same,EC50,human neutrophils; [5],31.6 nM
same,PMN oxid + roli (-log EC50),human neutrophils; [3],8.64
same,Ki,A3 AR; A3 ± SEM,28 ± 3 nM
same,A3/A2A,A3 AR,15.6
"CCNC(=O)[C@H]1O[C@@H](n2cnc3c(N)nc(C#CC4(O)CCCC4)nc32)C(O)C1O (stereo in doubt) [JR-3135, 5-[6-Amino-2-(1-hydroxy-cyclopentylethynyl)-purin-9-yl]-3,4-dihydroxytetrahydrofuran-2-carboxylic acid ethylamide]",Ki,human A1 AR; A1 ± SEM,5 ± 1.3 nM
same,EC50,human neutrophils; [5],1.26 nM
same,PMN oxid + roli (-log EC50),human neutrophils; [3],9.6
same,Ki,A3 AR; A3 ± SEM,3.5 ± 1.2 nM
"CNC(=O)[C@H]1O[C@@H](n2cnc3c(NCc4cccc(I)c4)nc(Cl)nc32)[C@H](O)[C@@H]1O [CI-IBMECA, N^6-3-iodo-2-chlorobenzyladenosine-5′-N-methyluronamide, reference compound]",EC50,human neutrophils; [6],45700 nM
"CCNC(=O)[C@H]1O[C@@H](n2cnc3c(N)nc(C#CC[C@H]4CC[C@H](COC(=O)OCc5ccccc5)CC4)nc32)C(O)C1O (stereo partly drawn) [ATL216, N-Ethyl 2-{3-[trans-4-(benzoxycarbonyloxamethyl)-cyclohexyl]-1-propyn-1-yl}adenosine-5′-uronamide]",Ki,[1]; [2],2.7 nM
same,EC50,human neutrophils; [5],13 nM
"CCNC(=O)[C@H]1O[C@@H](n2cnc3c(N)nc(C#CCN4CC5CC4CN5C(=O)OC(C)(C)C)nc32)C(O)C1O (stereo in doubt) [JR-4015, 5-{3-[6-Amino-9-(5-ethylcarbamoyl-3,4-dihydroxytetrahydrofuran-2-yl)-9H-purin-2-yl]prop-2-ynyl}-2,5-diazabicyclo[2.2.1]heptane-2-carboxylic acid tert-butyl ester]",A1/A2A,human A1 AR,0.0
same,Ki,[1],4.25 ± 1 nM
same,A3/A2A,A3 AR,0.0
"CNC(=O)[C@H]1O[C@@H](n2cnc3c(NCc4cccc(I)c4)ncnc32)[C@H](O)[C@@H]1O [IBMECA, N^6-3-iodobenzyladenosine-5′-N-methyluronamide, reference compound]",PMN oxid + roli (-log EC50),human neutrophils; [3],8.01
same,EC50,human neutrophils; [6],324 nM
"OC[C@H]1O[C@@H](n2cnc3c(NC4CCCC4)ncnc32)[C@H](O)[C@@H]1O [CPA, N^6-cyclopentyladenosine, reference compound]",Ki,[1]; A2A ± SEM,19.8 ± 3.2 nM
same,EC50,human neutrophils; [5],93300 nM
same,PMN oxid + roli (-log EC50),human neutrophils; [3],7.06
same,Ki,A3 AR; A3 ± SEM,93 ± 7 nM
"CCNC(=O)[C@H]1O[C@@H](n2cnc3c(N)nc(C#CC[C@H]4CC[C@H](COC(=O)OCC(C)C)CC4)nc32)C(O)C1O (stereo partly drawn) [ATL215, N-Ethyl 2-{3-[trans-4-(isobutoxyoxycarbonyloxamethyl)-cyclohexyl]-1-propyn-1-yl}adenosine-5′-uronamide]",Ki,[1]; [2],4.8 nM
same,EC50,human neutrophils; [5],20 nM
"CCNC(=O)[C@H]1O[C@@H](n2cnc3c(N)nc(NCCc4ccc(CCC(=O)O)cc4)nc32)[C@H](O)[C@@H]1O [CGS-21680, 2-[4-(2-carboxyethyl)phenethylamino]-5′-N-ethyl-carboxamidoadenosine, reference compound]",EC50,"human neutrophils; Homo sapiens, Neutrophil, human neutrophil experiment w/Rolipram, read-out: PMN oxid + roli (-log EC50) (converted)",2.82 nM
same,EC50,human neutrophils; [5],30.2 nM
"CCNC(=O)[C@H]1O[C@@H](n2cnc3c(N)ncnc32)[C@H](O)[C@@H]1O [NECA, 5′-N-ethylcarboxamidoadenosine, reference compound]",PMN oxid + roli (-log EC50),human neutrophils; [3],8.95
same,EC50,human neutrophils; [6],15.1 nM
"CCNC(=O)[C@H]1O[C@@H](n2cnc3c(N)nc(C#CCC4CCC(C(=O)OC)CC4)nc32)C(O)C1O (stereo in doubt) [ATL-146e, 4-{3-[6-Amino-9-(5-ethylcarbamoyl-3,4-dihydroxytetrahydrofuran-2-yl)-9H-purin-2-yl]-prop-2-ynyl}-cyclohexanecarboxylic acid methyl ester]",Ki,human A1 AR; A1 ± SEM,77 ± 12 nM
same,A1/A2A,human A1 AR,154.0
same,PMN oxid + roli (-log EC50),human neutrophils; [3],9.33
same,EC50,human neutrophils; [6],3.55 nM
same,Ki,A3 AR; A3 ± SEM,45 ± 15 nM
same,A3/A2A,A3 AR,90.0
